These results are taken from patent US20160367457A1, “CAPRYLOYL ALANINE ETHYLESTER AS A PENETRATION ENHANCER” (BASF SE, priority 2014, published 2016).

Where two headings read alike, the source gives them in different places.

Data set [1] is described as follows: Penetration study with 5% enhancer incorporated into W/O formulation. How it is done:
(§1) Permeation study was performed in four fold determination with the test and the reference item at human skin. For the transport studies the dermatomized skin was cut with a punch of 24 mm diameter and the thickness of the skin was measured at five points for each sample. Subsequently the skin pieces were fastened on cylindrical glass Franz cells which are employed as diffusion chambers. The lower (acceptor) chamber has a volume of approximately 12 ml, while the volume of the upper (donor) chamber is variable. The skin was inserted with the dermal layer facing downwards so that the skin's corneous layer is uppermost.
PE2 (C12) which is solid at room temperature, was gently melted in a water bath (at 35 to 40° C.) and applied as liquid. After 30 min of incubation the liquid penetration enhancers were gently removed with cotton balls. In the case of PE2 which solidified on the skin, the solid film was removed with a pincer. Thereafter 50 μl of the formulations were applied at the surface of the skin. The acceptor medium was thermostated at 32° C. and continuously stirred at a rate of 400 rpm. The diffusion area of skin was approximately 1.8 cm^2. Permeation through the skin into the acceptor medium was monitored over a period of 24 hours. The acceptor medium was sampled at 4 different time points, after 1, 3, 6 and 24 hours, by withdrawing samples of 200 μl. After withdrawing a sample volume, the acceptor medium was refilled with pre-warmed KRB/KRB+2% BSA. The concentration of active ingredients in the acceptor chamber was corrected to take the dilution introduced by sampling into account. Taken samples were mixed with 210 μl or 500 μl of scintillation cocktail for at least 1 hour at 200 rpm and radioactivity measured by scintillation counting.
The described study was partly repeated in a similar experimental setup with three test substances to act as skin permeation enhancer when incorporated into the cosmetic formulation and not applied directly to the skin: • Dimethyl isosorbide (DMI) a well-known penetration enhancer—used in cosmetics • Penetration Enhancer 1 (PE1)—capryloyl alanine ethylester • Penetration Enhancer 2 (DGME)—prior art penetration enhancer Transcutol (Gattefossee), diethylene glycol mono ethyl ether
Formulation 1 (W/O formulation) served as a basic formulation and as a reference without any penetration enhancer. This time the skin was not pre-incubated with the selected penetration enhancers (DMI, PE1 and DGME), but 5% of the respective penetration enhancer was incorporated into formulation 1 and the resulting formulations were spiked once again with radiolabeled ^3H-caffeine or ^3H-Vitamin E acetate.

A short description of data set [2]: Penetration study with the enhancer applied directly to the skin (preincubation), Franz cells, radiolabeled markers from W/O formulation 1. As for the experimental part:
The aim of the present study was to determine the potency of three test substances (one being the closest prior art penetration enhancer) to act as skin permeation enhancer in cosmetic formulations: • Dimethyl isosorbide (DMI) a well-known penetration enhancer—used in cosmetics • Penetration Enhancer 1 (PE1)—capryloyl alanine ethylester • Penetration Enhancer 2 (PE2)—closest prior art molecule dodecyloyl alanine ethylester
The tests were performed by an independent test institute specialized in penetration testing. […] The skin was pre-incubated with the selected penetration enhancers (DMI, PE1 and PE2) and after incubation time of 30 min formulation was removed from the skin surface and formulation 1 spiked with radiolabeled ^3H-caffeine or ^3H-Vitamin E acetate was applied.
The impact of the three penetration enhancers on the skin absorption rate of caffeine and Vitamin E acetate (representative hydrophilic and lipophilic cosmetic actives, respectively) incorporated into a w/o formulation was investigated. Radiolabeled caffeine and Vitamin E acetate were used as markers. The in vitro skin permeation studies were performed with dermatomized human skin (approximately 500 μm in thickness) over a period of 24 h in triplicate. Samples from the acceptor compartment were taken at four sampling times (1, 3, 6 and 24 h) to screen the permeation enhancement effect.
The transdermal absorption of the test compounds ^3H-caffeine and ^3H-Vitamin E acetate was monitored by measuring the amount of radio labeled substances in the acceptor medium.
The test compounds were quantified by liquid scintillation counting.
In accordance to the SCCP Guidelines of the European Commission the excised human skin from surgery is an appropriate in vitro test system to simulate the permeation and penetration processes of a compound into and across human skin under in vivo conditions.
For the penetration study, the human skin (female abdomen skin) of one donor which was dermatomized to a thickness of 500±100 μm was used and tests were conducted in triplicate. Full-thickness skin was prepared from the skin biopsies and stored at −20° C. […] The skin was used immediately after thawing. Repeated freeze-thaw cycles were avoided.
Formulation 1 (without penetration enhancer) was spiked with radiolabeled ^3H-caffeine (specific activity: 60 Ci/mmol) and ^3H-Vitamin E acetate (specific activity: 50 Ci/mmol) and applied as control directly to the skin. The radio labeled samples were prepared as follows: Formulation 1 was spiked with either radiolabeled ^3H-caffeine or ^3H-Vitamin E acetate resulting in 2960000 cpm/50 μl or 1264557 cpm/50 μl, respectively. One of the three different penetration enhancers (DMI, PE1 and PE2) was applied to the skin prior to the application of the radioactively spiked W/O-formulation.
Krebs Ringer buffer (KRB, pH=7.4) was prepared according to an internal standard operation procedure. KRB was used as the acceptor medium for ^3H-caffeine. For ^3H-Vitamin E acetate, KRB supplemented with 2% bovine serum albumin (BSA) was used as the acceptor medium. Solutions of ^3H-caffeine and ^3H-Vitamin E acetate were used to validate the detection method and to assess linearity.
as §1

The nature of data set [3]: Hansen Solubility Parameters (HSP) distance to the stratum corneum. It is filed as physicochemical. The source says: Capryloyl alanine ethyl ester turned out to have a smaller Hansen Solubility Parameters (HSP) distance to the stratum corneum than well-known and established references like DMI and ethyldiethylenglycol which indicates a good potential as skin penetration enhancer. Hansen Solubility Parameters are a key indicator for good partitioning into the stratum corneum provided the molecule is liquid at RT and has a small enough molecular volume.

Data set [4] can be described thus: Penetration of the penetration enhancer itself through the skin. The format is in vitro ADME. The source says: Furthermore, capryloyl-alanine ethylester can be metabolized in the skin thereby contributing to an improved toxicological profile.
[5] abbreviates: after 24 hours, skin pre-incubated 30 min with 20 μl enhancer, then W/O formulation 1 with 3H-caffeine, n = 3.
[6] abbreviates: after 24 hours, versus reference without enhancer, preincubation, n = 3.
Where [7] appears, read: at 24 hours, skin pre-incubated 30 min with 20 μl enhancer, then W/O formulation 1 with 3H-Vitamin E acetate, n = 3.
The mark [8] stands for this setting: at 24 hours, versus reference without enhancer, preincubation, n = 3.
The mark [9] stands for this setting: preincubation, 24 h detection time.
[10] abbreviates: preincubation, caffeine in w/o formulation, 24 h.

Regarding `CCOCCOCCO` [DGME, diethylene glycol mono ethyl ether], the “Effect on transport of caffeine compared to the reference formulation without any enhancer” value in data set [1] is given as “slightly enhanced the transport”. Besides, in data set [1] (human, 24 h, 5 %, pH 7.4), the “Average cumulative transport of 3H-caffeine” value is listed as 278.404 cpm/cm2 and the “Enhancement Ratio for 3H-caffeine” value amounted to 1.12.
On to `CCCCCCCCCCCC(=O)N[C@@H](C)C(=O)OCC` [PE2, dodecyloyl alanine ethylester], for which, in data set [2] (setting [5]), the “Average cumulative transport of 3H-caffeine” value was determined as 262929 dpm/cm^2. Besides, the “Enhancement Ratio for 3H-caffeine” value in data set [2] (setting [6]) worked out at 3.11. Moreover, in data set [2] (setting [7]), the “Average cumulative transport of 3H-Vitamin E acetate” value stood at 1814 dpm/cm^2. In data set [2] (setting [8]), the “Enhancement Ratio for 3H-Vitamin E acetate” value was 0.70. For the same molecule, in data set [2] (setting [9]), the “Effect on transport of Vitamin E acetate” value is listed as “reduced the transport”. Besides, in data set [2] (setting [10]), the “Caffeine transport compared to the control without any penetration enhancer” value is reported as “approximately 3 times”.
In the case of `CO[C@H]1CO[C@H]2[C@@H]1OC[C@H]2OC` [DMI, Dimethyl isosorbide], the “Average cumulative transport of 3H-caffeine” value in data set [2] (setting [5]) is 203120 dpm/cm^2; in data set [1] (at 24 hours, 5% enhancer incorporated into w/o formulation, n = 4) it was 212.435 cpm/cm2. In addition, the “Enhancement Ratio for 3H-caffeine” value worked out at 2.40 in data set [2] (setting [6]) and 0.86 in data set [1] (at 24 hours, 5% enhancer incorporated, versus reference formulation 1 without enhancer, n = 4). Besides, the “Average cumulative transport of 3H-Vitamin E acetate” value in data set [2] (setting [7]) was found to be 2578 dpm/cm^2. Besides, the “Enhancement Ratio for 3H-Vitamin E acetate” value in data set [2] (setting [8]) is 1.01. In addition, the “Effect on transport of Vitamin E acetate” value in data set [2] (setting [9]) was “only a slight penetration enhancing effect”. Further, the “Caffeine transport compared to the control without any penetration enhancer” value in data set [2] (setting [10]) is given as “around twice”. Moreover, the “Effect on transport of caffeine compared to the reference formulation without any enhancer” value in data set [1] (enhancer incorporated into W/O formulation) is “slightly decreased transport”.
For `CCCCCCCC(=O)N[C@@H](C)C(=O)OCC` [PE1, capryloyl alanine ethylester], in data set [2], the “Effect on transport of Vitamin E acetate” value is “only a slight penetration enhancing effect”. Also, in data set [2] (female, human, 24 h, pH 7.4), the “Average cumulative transport of 3H-Vitamin E acetate” value is reported as 2712 dpm/cm^2, the “Average cumulative transport of 3H-caffeine” value amounted to 414024 dpm/cm^2, the “Caffeine transport compared to the control without any penetration enhancer” value is given as “approximately 5 times” and the “Enhancement Ratio for 3H-Vitamin E acetate” value is on record as 1.06. For the same molecule, in data set [2] (female, human, 24 h, pH 7.4), the “Enhancement Ratio for 3H-caffeine” value came out at 4.89 and the “Penetration of Vitamin E acetate with PE1 in comparison to PE2” value was found to be 1.5 fold. The “Effect on transport of caffeine compared to the reference formulation without any enhancer” value in data set [1] was “most effective permeation enhancer”. In addition, in data set [1] (human, 24 h, 5 %, pH 7.4), the “Average cumulative transport of 3H-caffeine” value amounted to 342.593 cpm/cm2 and the “Enhancement Ratio for 3H-caffeine” value was determined as 1.38. The “HSP distance to the stratum corneum compared with DMI and ethyldiethylenglycol” value in data set [3] is on record as “smaller”. In data set [4], the “Penetration of the enhancer itself through the skin compared with DMI” value is reported as “lesser degree than DMI”.
